From ChEMBL document CHEMBL1201862, “PubChem BioAssay data set” (2004)
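Where inhibition never reached the appropriate level, the endpoint shown equals the highest concentration tested. Otherwise, values were interpolated linearly from a five-concentration, 48-hour dose response in 96-well plates. The concentration for 50% growth inhibition is given as GI50.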 Calls of active or inactive are those of the source. Cut-off read from the data, not from the text of the source: active = GI50 up to about 1.1 µM and inactive = higher.

How the values were obtained:
Experiment in all cases: inhibition of tumour cell growth, NCI panel, 48 h
UACC-62 = test system: UACC-62
NCI-H522 = test system: NCI-H522
SK-OV-3 = test system: SK-OV-3
K562 = test system: K562
SW-620 = test system: SW-620
HCT-116 = test system: HCT-116
OVCAR-4 = test system: OVCAR-4
KM12 = test system: KM12
SF-268 = test system: SF-268
OVCAR-3 = test system: OVCAR-3
SK-MEL-2 = test system: SK-MEL-2
MDA-N = test system: MDA-N
HOP-62 = test system: HOP-62
SN12C = test system: SN12C
HL-60 = test system: HL-60
CCRF-CEM = test system: CCRF-CEM
UACC-257 = test system: UACC-257
OVCAR-5 = test system: OVCAR-5
IGROV-1 = test system: IGROV-1

Measured: GI50

COc1cc(/C=C2\C(=O)N(c3ccccc3Cl)C(c3ccccc3)S2(=O)=O)cc(OC)c1OC (stereo unspecified)
inactive: UACC-62 31.9 µM | NCI-H522 20.9 µM | SK-OV-3 30.7 µM | K562 22 µM | SW-620 37.3 µM | HCT-116 22.9 µM | OVCAR-4 57.3 µM | KM12 27.2 µM | SF-268 46.7 µM | OVCAR-3 47.4 µM | SK-MEL-2 44.1 µM | MDA-N 15.2 µM | HOP-62 53 µM | SN12C 20.8 µM | HL-60 28.6 µM | CCRF-CEM 16 µM | UACC-257 51.1 µM | OVCAR-5 20.9 µM

O=C(CCCC(=O)N1CC(CCl)c2ccc([N+](=O)[O-])cc21)N1CC(CCl)c2ccc([N+](=O)[O-])cc21 (stereo unspecified)
inactive: UACC-62 > 100 µM | NCI-H522 71.4 µM | SK-OV-3 > 100 µM | K562 > 100 µM | SW-620 > 100 µM | HCT-116 > 100 µM | OVCAR-4 > 100 µM | SF-268 > 100 µM | OVCAR-3 > 100 µM | SK-MEL-2 > 100 µM | MDA-N > 100 µM | HOP-62 > 100 µM | SN12C > 100 µM | HL-60 > 100 µM | CCRF-CEM > 100 µM | UACC-257 > 100 µM | OVCAR-5 > 100 µM

Cc1ccc(SCC(OCn2cnc3c(Cl)nc(N)nc32)[C@H](C)F)cc1 (stereo partly specified)
inactive: UACC-62 > 100 µM | NCI-H522 13.8 µM | SK-OV-3 > 100 µM | SW-620 > 100 µM | HCT-116 50.4 µM | OVCAR-4 71.3 µM | KM12 81.8 µM | IGROV-1 > 100 µM | SF-268 > 100 µM | OVCAR-3 > 100 µM | SK-MEL-2 > 100 µM | MDA-N > 100 µM | HOP-62 > 100 µM | SN12C 43.7 µM | HL-60 28.3 µM | CCRF-CEM 39.1 µM | UACC-257 21.1 µM | OVCAR-5 > 100 µM

c1cc(-c2ccc(-c3ccc(C4=NCCCN4)cc3)o2)ccc1C1=NCCCN1
inactive: UACC-62 19 µM | NCI-H522 81.3 µM | SK-OV-3 > 100 µM | K562 40.6 µM | SW-620 82.2 µM | HCT-116 39.6 µM | OVCAR-4 > 100 µM | KM12 43.7 µM | SF-268 > 100 µM | OVCAR-3 > 100 µM | SK-MEL-2 > 100 µM | MDA-N 32.6 µM | HOP-62 47.8 µM | SN12C 4.18 µM | HL-60 > 100 µM | CCRF-CEM > 100 µM | UACC-257 38.8 µM | OVCAR-5 > 100 µM

O=P(OCc1ccccc1)(OCc1ccccc1)C(O)/C=C/c1ccccc1 (stereo unspecified)
inactive: UACC-62 15.8 µM | NCI-H522 23.8 µM | SK-OV-3 45.1 µM | K562 34.2 µM | SW-620 26.1 µM | HCT-116 17.7 µM | OVCAR-4 21.4 µM | KM12 19.8 µM | IGROV-1 19.6 µM | SF-268 16.9 µM | OVCAR-3 20.9 µM | SK-MEL-2 20.7 µM | MDA-N 17.3 µM | HOP-62 21.8 µM | SN12C 19.8 µM | HL-60 19.8 µM | UACC-257 17 µM | OVCAR-5 30.6 µM

COc1ccc(C(SCCO)(c2ccccc2)c2ccccc2)cc1
inactive: UACC-62 14.3 µM | NCI-H522 13.6 µM | SK-OV-3 16.5 µM | K562 12.9 µM | SW-620 20.6 µM | HCT-116 10.9 µM | OVCAR-4 15.6 µM | KM12 14.1 µM | SF-268 14.6 µM | OVCAR-3 14 µM | SK-MEL-2 13.1 µM | MDA-N 8.26 µM | HOP-62 15.4 µM | SN12C 12.8 µM | HL-60 22.8 µM | CCRF-CEM 15.5 µM | UACC-257 17.4 µM | OVCAR-5 16.9 µM

CC1(C(=O)O)CCCC1C(=O)O (stereo unspecified)
inactive: UACC-62 > 100 µM | NCI-H522 > 100 µM | K562 > 100 µM | SW-620 > 100 µM | HCT-116 > 100 µM | OVCAR-4 > 100 µM | KM12 > 100 µM | IGROV-1 > 100 µM | SF-268 > 100 µM | OVCAR-3 > 100 µM | SK-MEL-2 > 100 µM | MDA-N > 100 µM | HOP-62 > 100 µM | SN12C > 100 µM | HL-60 > 100 µM | CCRF-CEM > 100 µM | UACC-257 > 100 µM | OVCAR-5 > 100 µM

COc1ccc(CC(O)CN2CCOCC2)cc1 (stereo unspecified)
inactive: UACC-62 > 100 µM | NCI-H522 > 100 µM | K562 > 100 µM | SW-620 > 100 µM | HCT-116 > 100 µM | OVCAR-4 > 100 µM | KM12 > 100 µM | IGROV-1 > 100 µM | SF-268 > 100 µM | OVCAR-3 > 100 µM | SK-MEL-2 > 100 µM | MDA-N > 100 µM | HOP-62 > 100 µM | SN12C > 100 µM | HL-60 > 100 µM | CCRF-CEM > 100 µM | UACC-257 > 100 µM | OVCAR-5 > 100 µM

CCOC(=O)CCC(NC(=O)c1ccc(Nc2nc3ccccc3nc2C(=O)OCC)s1)C(=O)OCC (stereo unspecified)
inactive: UACC-62 59.2 µM | NCI-H522 > 100 µM | SK-OV-3 > 100 µM | K562 > 100 µM | SW-620 > 100 µM | HCT-116 > 100 µM | OVCAR-4 37.2 µM | KM12 85.1 µM | IGROV-1 > 100 µM | SF-268 98.4 µM | OVCAR-3 > 100 µM | SK-MEL-2 > 100 µM | MDA-N > 100 µM | SN12C > 100 µM | HL-60 36.6 µM | UACC-257 > 100 µM | OVCAR-5 > 100 µM

COc1cc2c(cc1OCCCN1CCOCC1)N=C[C@@H]1CCCN1C2=O
inactive: UACC-62 12.8 µM | NCI-H522 1.25 µM | SK-OV-3 10.8 µM | K562 4.73 µM | SW-620 3.33 µM | HCT-116 12.8 µM | OVCAR-4 13.3 µM | KM12 13.4 µM | SF-268 7.53 µM | OVCAR-3 2.83 µM | SK-MEL-2 11.2 µM | MDA-N 6.89 µM | HOP-62 12.5 µM | SN12C 23.6 µM | HL-60 5.74 µM | CCRF-CEM 2.75 µM | UACC-257 24.6 µM | OVCAR-5 15.5 µM

COc1cc(-c2oc3c(OC)c(O)c(OC)c(O)c3c(=O)c2OC)cc(O)c1OC
inactive: UACC-62 22.4 µM | NCI-H522 24.3 µM | SK-OV-3 16.4 µM | K562 26.5 µM | SW-620 44.3 µM | HCT-116 36.1 µM | OVCAR-4 > 100 µM | KM12 14.3 µM | IGROV-1 12.1 µM | OVCAR-3 24.7 µM | SK-MEL-2 55.1 µM | MDA-N 17.7 µM | HOP-62 40.5 µM | SN12C 34.4 µM | HL-60 24.8 µM | CCRF-CEM 28.9 µM | UACC-257 51.2 µM | OVCAR-5 56.6 µM
